Assay results reported in US12679878B2, “CRF2 receptor agonists and their use in therapy” (SANOFI, priority 2020, dated 2026).
Read-outs that look alike come from different tables or passages of the source. Starred links: 1 amine or outer side, 2 acyl side, 3 side chain; linkers in the order of their positions; H or OH if unused. Residues, ends and D or L forms follow the SMILES beside them. Groups on a side chain read outwards from the residue. *: point of attachment. C20 diacid = O=C(O)CCCCCCCCCCCCCCCCCCC(=O)*; C18 diacid = O=C(O)CCCCCCCCCCCCCCCCC(=O)*; γGlu = O=C(O)[C@H](CCC(=O)[*:2])N[*:1]; AEEA = NCCOCCOCC(=O)O

Tests used:
rat CRF2R α receptor = test: cAMP agonism at rat CRF2R α receptor in A7R5 rat aortic smooth muscle cells (Example 8); assay type: cell-based; conditions: cAMP HTRF, A7R5 rat aortic smooth muscle cell line, 0% HSA
Procedure, shortened: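 Thawed cryopreserved A7R5 cells in HBSS/20 mM HEPES (0 or 0.1% HSA) with 2 mM IBMX, 2000 cells/well, were exposed to compound for 30 min at room temperature. cAMP was read by HTRF (665/620 nm ratio) after 1 h with lysis reagents. Activity was normalised to 1000 nM urocortin 2 as 100%, and EC50 was taken as the concentration giving 50% of maximal activation.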

recombinant human CRF2 = target: T1, recombinant human CRF2 (Homo sapiens, UniProt Q13324); test: CRF2a (h) agonist radioligand binding, [125]sauvagine, HEK cell membranes (Example 11); conditions: competition with [125]sauvagine 0.1 nM
T1 construct: expressed in transfected cells; host or cells: HEK
T1 sequence (Q13324 1-411): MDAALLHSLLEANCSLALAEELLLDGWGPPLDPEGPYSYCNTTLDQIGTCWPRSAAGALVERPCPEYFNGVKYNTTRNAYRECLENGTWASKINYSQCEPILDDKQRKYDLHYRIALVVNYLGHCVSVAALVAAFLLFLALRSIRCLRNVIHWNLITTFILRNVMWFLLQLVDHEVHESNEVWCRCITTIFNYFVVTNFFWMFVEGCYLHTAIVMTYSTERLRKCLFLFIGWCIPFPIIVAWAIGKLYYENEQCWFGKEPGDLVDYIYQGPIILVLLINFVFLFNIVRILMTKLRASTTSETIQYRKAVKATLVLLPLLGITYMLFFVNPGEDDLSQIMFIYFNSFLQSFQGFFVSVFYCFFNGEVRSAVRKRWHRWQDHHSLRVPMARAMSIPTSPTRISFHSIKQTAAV
Protocol: Receptor binding of the compounds was assessed using a CRF2a (h) (agonist radioligand) assay.
HEK cells expressing recombinant human CRF2 were used as a source of receptor for membrane preparation.
IC50 values (concentration causing a half-maximal inhibition of control specific binding) and Hill coefficients (nH) were determined by non-linear regression analysis of the competition curves generated with mean replicate values using Hill equation curve fitting. The inhibition constants (Ki) were calculated using the Cheng Prusoff equation [Ki=IC50/(1+L/KD) where L is the concentration of radioligand in the assay, and KD is the affinity of the radioligand for the receptor). A Scatchard plot was used to determine the KD.

[1] = Chemical stability, purity loss by UPLC-UV after 28 days at 40° C. vs 5° C., pH 4.5 acetate buffer (Example 12); assay type: physicochemical; conditions: 28 days 40° C. vs 5° C.; pH 4.5, 20 mM acetate buffer; 300 μM
Procedure, shortened: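 300 μM compound (purity-corrected) in 20 mM acetate buffer, pH 4.5, stored 28 days at 5 and 40° C. Purity by UPLC-UV as compound peak area over total peak area. Value is the purity difference between 5° C. and 40° C. samples, relative to the 5° C. purity, in percent.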

[2] = Solubility in buffer systems by UPLC-UV (Example 13); assay type: physicochemical
Procedure, shortened: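 The supernatant was diluted 1:10 and quantified by UPLC-UV peak area against a reference standard curve, correcting for sequence-based extinction coefficients.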

[3] = Physical stability, Thioflavin T fibrillation assay (Example 14); assay type: physicochemical; conditions: 3 mg/ml, 37° C. shaking
Procedure, shortened: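 Compounds at 3 mg/ml final in buffer were stressed at 37° C by repeated cycles of 10 s shaking at 960 rpm and 50 s rest. ThT fluorescence was read every 20 minutes in eight replicates, with fluorescence increase and lag time indicating fibrillation tendency.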

[4] = Buffer A: 100 mM acetate buffer, pH 4.5
[5] = Buffer B: 100 mM acetate buffer, pH 4.5, 2.7 mg/ml m-cresol

SMILES	EC50 (rat CRF2R α receptor) [nM]	nH (Hill coefficient) (recombinant human CRF2)	Relative purity loss [%] [1] [%]	solubility at 1 h ([2]; pH 4.5, Solubility in Buffer B [mg/ml]) [µg/mL]	solubility at 1 h ([2]; pH 7.4, Solubility in Buffer C [mg/ml]) [µg/mL]	Increase in FI (fluorescence intensity) [3, 4]	Lag time [3, 4] [h]	Increase in FI (fluorescence intensity) [3, 5]	Lag time [3, 5] [h]	solubility at 1 h ([2]; Buffer B: 100 mM acetate buffer, pH 4.5, 2.7 mg/ml m-cresol, target 10 mg/ml, read-out: Solubility in Buffer B) [µg/mL]	solubility at 1 h ([2]; Buffer C: 100 mM phosphate buffer, pH 7.4, target 10 mg/ml, read-out: Solubility in Buffer C) [µg/mL]
CC[C@H](C)[C@H](N)C(=O)N[C@H](C(=O)N[C@@H](CC(C)C)C(=O)N[C@@H](CO)C(=O)N[C@@H](CC(C)C)C(=O)N[C@@H](CC(=O)O)C(=O)N[C@H](C(=O)N1CCC[C@H]1C(=O)N[C@H](C(=O)N[C@@H](CCCCN)C(=O)N[C@@H](CC(C)C)C(=O)N[C@@H](CCCCNC(=O)COCCOCCNC(=O)COCCOCCNC(=O)CC[C@H](NC(=O)CCCCCCCCCCCCCCCCC(=O)O)C(=O)O)C(=O)N[C@@H](CCCCN)C(=O)N[C@H](C(=O)N[C@@H](CC(C)C)C(=O)N[C@@H](CC(C)C)C(=O)N[C@@H](CCC(=O)O)C(=O)N[C@@H](CCC(N)=O)C(=O)N[C@@H](CCC(=O)O)C(=O)N[C@@H](CCCCN)C(=O)N[C@@H](CCC(N)=O)C(=O)N[C@@H](CCCCN)C(=O)N[C@@H](CCCCN)C(=O)N[C@@H](CCC(N)=O)C(=O)N[C@@H](CCCNC(=N)N)C(=O)N[C@@H](CCC(=O)O)C(=O)N[C@@H](CCC(N)=O)C(=O)N[C@@H](C)C(=O)N[C@@H](CCC(=O)O)C(=O)N[C@H](C(=O)N[C@@H](CC(N)=O)C(=O)N[C@@H](CCCCN)C(=O)N[C@@H](CCC(N)=O)C(=O)N[C@H](C(=O)N[C@@H](CC(C)C)C(=O)N[C@@H](C)C(=O)N[C@@H](CCC(N)=O)C(=O)N[C@H](C(N)=O)C(C)C)[C@@H](C)CC)[C@@H](C)O)[C@@H](C)CC)[C@@H](C)CC)C(C)C)C(C)C [compound 35] (H-IVLSLDVPIKLK([AEEA-AEEA-γGlu-C18 diacid])KILLEQEKQKKQREQAETNKQILAQV-NH2; N-terminus assumed)	0.81	1.7	4.45	> 8700	> 9800	No	>45	No	>45		
CC[C@H](C)[C@H](NC(=O)[C@H](CCC(N)=O)NC(=O)[C@H](CCC(=O)O)NC(=O)[C@H](CC(C)C)NC(=O)[C@H](CC(C)C)NC(=O)[C@H](CCC(N)=O)NC(=O)[C@H](CCCCN)NC(=O)[C@H](CC(N)=O)NC(=O)[C@H](CCCCN)NC(=O)[C@H](CCC(=O)O)NC(=O)[C@H](C)NC(=O)[C@H](CCC(N)=O)NC(=O)[C@H](CCC(N)=O)NC(=O)[C@H](CCCNC(=N)N)NC(=O)[C@H](CCC(=O)O)NC(=O)[C@H](CCCCN)NC(=O)[C@H](CCCCN)NC(=O)[C@H](CCC(N)=O)NC(=O)[C@H](CCCCN)NC(=O)[C@H](CCC(N)=O)NC(=O)[C@H](CCC(N)=O)NC(=O)[C@H](CCCCN)NC(=O)[C@H](CC(C)C)NC(=O)[C@H](CC(C)C)NC(=O)[C@@H](NC(=O)[C@H](CCC(N)=O)NC(=O)[C@H](CCCCNC(=O)COCCOCCNC(=O)COCCOCCNC(=O)CC[C@H](NC(=O)CCCCCCCCCCCCCCCCCCC(=O)O)C(=O)O)NC(=O)[C@@H](NC(=O)[C@H](CCCCN)NC(=O)[C@@H](NC(=O)[C@@H]1CCCN1C(=O)[C@@H](NC(=O)[C@H](CC(=O)O)NC(=O)[C@H](CC(C)C)NC(=O)[C@H](CO)NC(=O)[C@H](CC(C)C)NC(=O)[C@@H](NC(=O)[C@@H](N)Cc1ccccc1)[C@@H](C)O)C(C)C)[C@@H](C)O)[C@@H](C)CC)[C@@H](C)CC)C(N)=O [compound 59] (H-FTLSLDVPTKIK([AEEA-AEEA-γGlu-C20 diacid])QILLKQQKQKKERQQAEKNKQLLEQI-NH2)	0.34	0.6	2.85							> 9400	> 9100
